Experimental data taken from patent publication US8865672B2, “Prevention of tissue ischemia and related methods” (The United States of America, as represented by the …, priority 2006, dated 2014).

Tests used:
[1] = test system: full thickness skin grafts in mice; assay: Full thickness skin graft (FTSG) model; type: in vivo, mouse; conditions: for FTSG survival: wild type FTSG and wound beds infiltrated at grafting
Protocol: Wild type, TSP1 null, CD47 null and CD36 null mice were matched for sex and age. Anesthesia was induced by and maintained with inhalation isoflurane. Body temperature was maintained at 37° C. with a heating pad during the procedure. The dorsal surface was clipped of hair and depilated with Nair®. The skin was then cleansed with surgical soap and alcohol and the animals draped. Using sterile technique, a 1×1 cm FTSG incorporating the panniculus carnosus, subcutaneous tissues and skin were raised. Graft dimensions were marked on the animal skin surface with the aid of a template to insure consistency in dimension. Grafts were in the midline of the animal and secured with four interrupted 5-0 nylon sutures. Sutures were so placed as to include the fascia of the dorsal musculature to provide increased immobilization of grafts to the underlying wound bed Animals were awakened and returned to individual cages and allowed ad libitum access to food and water. Trauma to FTSG was not encountered during the post-operative interval since grafts were located in the dorsal midline over the mid thoracic area and each animal was housed individually following surgery. On postoperative day three or seven, the animals were again anesthetized with inhalation isoflurane and skin graft survival evaluated.
The groups of animals utilized and the treatments received as indicated either at the time of skin grafting and/or during the post-operative interval are summarized in FIG. 21. Animals treated with ISDN (1 mg/ml) or L-NAME (0.5 mg/ml) had ad libitum access to drinking water containing the given concentrations of agents during the post-operative interval. Animals treated with a CD47 monoclonal antibody (Ab clone 301) or an isotype matched control antibody (Ig2α) underwent injection of 40 μg delivered as 10 μl of a 4 mg/ml stock in 100 μl of PBS with equal volumes injected between the wound bed and graft prior to suturing the graft in place. Animals treated with a CD47 morpholino oligonucleotide underwent injection of the FTSG and wound bed with 10 μmol/L in 250 μl of PBS with 125 μl volumes injected in the graft and wound bed, respectively prior to suturing the graft in place.
The necrotic areas of the FTSG were determined by color, refill, eschar, and the pin-prick test. The outlines of viable and nonviable areas were traced using transparent film, and the area of necrosis cut from the template and the area of skin graft necrosis versus total skin graft area determined by comparison of the original template weight to the weight of the cut template utilizing the method described by Ueda (Ueda et al., J Surg Res 80(2):200-204, 1998). Skin graft survival area was presented as the ration of graft survival on post-operative day three or seven divided by the original graft area multiplied by 100%. Additionally, digital images were then acquired using an Olympus C5500 digital camera at a fixed distance (20 cm perpendicular to the animal) under standard room lighting with autoflash and macro settings engaged and uploaded for image analysis of tissue survival with a standard software program (Image-Pro Plus, Media Cybernetics, Inc., Silver Spring, Md.). […]
Skin graft wound beds were assessed at indicated time points (72 hours or 7 days post-operatively) for visible alterations in vascularity under 5× magnification. […] Visible vessels without ramifications and branches were counted once. […]

[2] = test system: ischemic hindlimbs in mice; assay: Hindlimb ischemia model; type: in vivo, mouse; conditions: ischemic wild type hindlimbs; for hindlimb tissue necrosis: morpholino 10 μM to thigh musculature
Protocol: Wild type C57BL6, TSP1 null, CD47 null and CD36 null mice, age and sex matched, underwent ligation of the left external iliac and common femoral arteries. The right limb served as control. All animals underwent examination every 24 h to assess clinical ischemia based on a previously published index (Paek et al., J Vasc Surg. 36:172-179, 2002). At the end of 3 or 7 days animals were euthanized, and the tibialis anterior muscles from the right and left limbs were harvested, weighed and processed for mitochondrial viability.
Mitochondrial viability of hindlimb muscle biopsies was assessed by the reduction of a tetrazolium salt to water insoluble formazan through mitochondrial oxidation as described (Bonheur et al., J Surg Res. 116:55-63, 2004). Tibialis anterior muscle biopsies were weighed and incubated in 3 ml of PBS supplemented 1:10 with 3-(4,5-dimethylthiazol-2-yl)-2,5 diphenyl tetrazolium stock (MTT, Promega, Madison, Wis.) for 3 h in the dark at 37° C., washed with distilled water and blotted dry. The formazan salt was extracted in 3 ml of 2-propranol for 6 hours in the dark at 37° C. Absorbance for 200 μl aliquots was determined at 425 nm on a microplate reader. Muscle samples were dried at 90° C. and weighed again. Results were expressed as absorbance normalized to dry tissue weight.

[3] = test system: CD47; assay: Western analysis of CD47 in HUVEC; type: cell-based, human; conditions: morpholino 0.1-10 μM, 48 h
Protocol: HUVEC were plated in 12-well culture plates (5×10^4 cells/well) (Nunc, Denmark) in full growth medium and treated over 48 h with indicated doses of CD47 and control morpholino. Cells were subsequently washed twice with PBS and lysed immediately in 1×SDS sample buffer containing 10 µg/mL leupeptin, […] aprotinin, 1 mM Na3VO4, and 40 mM NaF. Lysates prepared in the SDS sample buffer described above were electrophoresed in 4-12% BisTris NuPAGE gels and transferred to PVDF membranes prior to immunoblotting with a monoclonal antibody to CD47 (clone B6H12, Lab Visions, Inc, Fremont, Calif.). The membrane was stripped and reprobed with a monoclonal antibody against β-actin (Sigma-Aldrich, St. Louis, Mo.).

[4] = test system: white hairless Yucatan miniature pig VSMC; assay: Intracellular cGMP in porcine VSMC; type: cell-based
Protocol: White hairless Yucatan miniature pig VSMC were plated onto culture plates (Nunc, Roskilde, Denmark) at a the indicated cell density in smooth muscle cell growth medium+2% FCS and cultured until approximately 90% confluent. Cultured cells were treated according to the recommendation of the manufacturer with morpholinos (10 μM) and delivery agent (Endoporter® 6 μl/ml) and used within 48 hours of treatment.
White hairless Yucatan miniature pig VSMC (10^4 cells/well) grown overnight in 12-well culture in SM-GM containing 2% FCS and then weaned off serum over 48 h before treatment with NO donors and other agents in serum/additive free medium+0.1% BSA. Intracellular cGMP levels were determined using an enzyme immunoassay (Amersham, GE Health Care, UK).

Substance	H & E histology of treated wild type FTSG ([1]; mouse, in vivo)	FTSG survival [1]	wound bed vascular index ([1]; wild type wound beds)	muscle mitochondrial viability [2]	hindlimb tissue necrosis [2]	CD47 expression (Western) [3]	ability of TSP1 to suppress NO-stimulated cGMP after pretreatment ([4]; porcine VSMC, TSP1 2.2 nM)	basal cGMP levels ([4]; resting porcine VSMC)	NO-stimulated increase in cGMP ([4]; control and mismatch treated porcine VSMC, TSP1 2.2 nM)
CGTCACAGGCAGGACCCACTGCCCA (all phosphorodiamidate morpholino (PMO)) [CD47 morpholino]	essentially normal tissue architecture without evidence of necrosis	79±5%	substantial increases in visible vasculature	increased muscle mitochondrial viability	essentially no tissue necrosis	Effective dose-dependent suppression of CD47	resistant to suppression by TSP1	elevated	
CGTgACAGcCAcGACCgACTGCgCA (antisense CGTGACAGCCACGACCGACTGCGCA; all phosphorodiamidate morpholino (PMO)) [control morpholino, reference compound]		significant graft necrosis and loss			did not protect	did not show suppression of CD47			
TSP1: thrombospondin-1 prepared from human platelets									blocked the increase in cGMP
